Experimental data published in patent US8343968B2, “Case of renin inhibitors” (Merck Canada Inc., priority 2007, dated 2013).

Tests used:
[1] = molecular target: T1, renin in human plasma (human recombinant renin) (Homo sapiens, UniProt P00797); experiment: Inhibition of renin in human plasma, enzymatic in vitro assay with Ang I EIA; format: biochemical; conditions: human plasma from 10 normal donors; human recombinant renin 3 pM
T1 construct: host or cells: human plasma from 10 normal donors as matrix
T1 sequence (P00797 67-406): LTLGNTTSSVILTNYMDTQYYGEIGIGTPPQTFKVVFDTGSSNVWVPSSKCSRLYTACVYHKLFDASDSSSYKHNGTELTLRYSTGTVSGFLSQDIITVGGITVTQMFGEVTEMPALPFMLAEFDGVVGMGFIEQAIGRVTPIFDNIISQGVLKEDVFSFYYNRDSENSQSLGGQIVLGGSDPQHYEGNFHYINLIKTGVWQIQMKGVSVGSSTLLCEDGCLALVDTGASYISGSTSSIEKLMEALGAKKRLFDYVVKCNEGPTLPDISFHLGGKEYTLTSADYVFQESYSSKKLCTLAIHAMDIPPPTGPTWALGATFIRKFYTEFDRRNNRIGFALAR
Procedure: Inhibition of Renin in Human Plasma
The enzymatic in vitro assay was performed in 384-well polypropylene plates (Nunc). The assay buffer consisted of PBS (Gibco BRL) including 1 mM EDTA and 0.1% BSA. The reaction mixture was composed of 80 μL per well of human plasma, enzyme, Ang I-antibodies mix and 5 μL of renin inhibitors in DMSO. The human plasma mix was premixed at 4° C. and consists of • human plasma from 10 normal donors • human recombinant renin (3 pM) • Ang I-antibodies. The mixtures were then incubated at 37° C. for 2 h.
To determine the enzymatic activity and its inhibition, the accumulated Ang I was detected by an enzyme immunoassay (EIA) in 384-well plates (Nunc). 10 μL of the reaction mixture or standards were transferred to immuno plates which were previously coated with a covalent complex of Ang I and bovine serum albumin (Ang I-BSA). 70 μL assay buffer were added and the plates were incubated at 4° C. overnight. The plates were washed 3 times with PBS including 0.01% Tween 20, and then incubated for 2 h at RT with an anti rabbit-peroxidase coupled antibody (WA 934, Amersham).

[2] = molecular target: T2, human recombinant renin (Homo sapiens, UniProt P00797); experiment: Inhibition of human recombinant renin (buffer), enzymatic in vitro assay with Ang I EIA; format: biochemical; conditions: assay buffer PBS, 1 mM EDTA, 0.1% BSA; human recombinant renin 40 pM
T2 sequence (P00797 67-406): T1 sequence (P00797 67-406)
Procedure: Inhibition of Human Recombinant Renin
The enzymatic in vitro assay was performed in 384-well polypropylene plates (Nunc). The assay buffer consisted of PBS (Gibco BRL) including 1 mM EDTA and 0.1% BSA. The reaction mixture were composed of 47.5 μL per well of an enzyme mix and 2.5 μL of renin inhibitors in DMSO. The enzyme mix was premixed at 4° C. and consists of the following components: • human recombinant renin (40 pM) • synthetic human angiotensin(1-14) (0.5 μM) • hydroxyquinoline sulfate (1 mM) The mixtures were then incubated at 37° C. for 3 h. The enzyme reaction was stopped by placing the reaction plate on wet ice.
To determine the enzymatic activity and its inhibition, the accumulated Ang I was detected by an enzyme immunoassay (EIA) in 384-well plates (Nunc). 5 μL of the reaction mixture or standards were transferred to immuno plates which were previously coated with a covalent complex of Ang I and bovine serum albumin (Ang I-BSA). 75 μL of Ang I-antibodies in assay buffer above including 0.01% Tween 20 were added and the plates were incubated at 4° C. overnight.
An alternative protocol could be used by stopping the enzymatic reaction with 0.02N final concentration of HCl. 5 μL of the reaction mixture or standards were transferred to immuno plates and 75 μL of Ang I-antibodies in assay buffer above including 0.01% Tween 20 were added and the plates were incubate at RT for 4 h.
The plates were washed 3 times with PBS including 0.01% Tween 20, and then incubated for 2 h at RT with an anti rabbit-peroxidase coupled antibody (WA 934, Amersham).

IC50 [1] | IC50 [2] | SMILES
11 nM | 0.064 nM | CCOC(=O)[C@@H]1C[C@H]1COc1cc(CCCOC)cc(CN(C(=O)[C@H]2CNCC[C@@H]2c2ccc(OCCOc3c(Cl)cc(C)cc3Cl)cc2)C2CC2)c1 [Example 1, Ethyl (1R,2R)-2-{[3-({cyclopropyl[((3R,4S)-4-{4-[2-(2,6-dichloro-4-methylphenoxy)-ethoxy]phenyl}piperidin-3-yl)carbonyl]amino}methyl)-5-(3-methoxypropyl)phen-oxy]methyl}cyclopropanecarboxylate]
1.1 nM | 0.027 nM | COCCCc1cc(CN(C(=O)[C@H]2CNCC[C@@H]2c2ccc(OCCOc3c(Cl)cc(C)cc3Cl)cc2)C2CC2)cc(OC[C@@H]2C[C@H]2C(=O)O)c1 [Example 2]
5.6 nM | 0.036 nM | COCCCc1cc(CN(C(=O)[C@H]2CNCC[C@@H]2c2ccc(OCCOc3c(Cl)cc(C)cc3Cl)cc2)C2CC2)cc(OCC2(CC(=O)O)CC2)c1 [Example 12, (1-{[3-({Cyclopropyl[((3R,4S)-4-{4-[2-(2,6-dichloro-4-methylphenoxy)ethoxy]-phenyl}piperidin-3-yl)carbonyl]amino}methyl)-5-(3-methoxypropyl)phenoxy]-methyl}cyclopropyl)acetic Acid]
2.3 nM | 0.03 nM | COCCCc1cc(CN(C(=O)[C@H]2CNCC[C@@H]2c2ccc(OCCOc3c(Cl)cc(C)cc3Cl)cc2)C2CC2)cc(OCC2(Cc3nn[nH]n3)CC2)c1 [Example 14, (3R,4S)—N-Cyclopropyl-4-{4-[2-(2,6-dichloro-4-methylphenoxy)ethoxy]phenyl}-N-(3-(3-methoxypropyl)-5-{[1-(2H-tetrazol-5-ylmethyl)cyclopropyl]methoxy}benzyl)-piperidine-3-carboxamide]
